Reference: the supplement of paper PMC10307832

Tests used:
Test in all cases: relative viability (nuclei count vs DMSO), 5 days (fraction); higher = more cells survive
[1] = compound: C1CC2=C(C1)C=C(C=C2)OC3=NC(=C4C(=N3)N(C=N4)CC5=CC=C(C=C5)C6=CC=CC=C6)N[C@@H](CC7=CC=CC=C7)CO [QS11] + COc1cc2c(Oc3ccc(NC(=O)C4(C(=O)Nc5ccc(F)cc5)CC4)cc3F)ccnc2cc1OCCCN1CCOCC1 [Foretinib] (partner 0.25 µM)
Method in brief: (§1)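 Relative viability is defined as nuclei in treated wells over nuclei in vehicle wells. Duplicate plates were run and medians reported. Lung cancer cell lines in 1536-well plates were dosed by pin tool one day after seeding, with one drug or with a fixed anchor-drug dose plus five library-drug doses (not always all listed) in √10 steps, and nuclei were counted after 5 days.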

[2] = compound: CC1=C(C=C(C=C1)NC(=O)C2=CC(=CC=C2)C(C)(C)C#N)NC3=CC4=C(C=C3)N=CN(C4=O)C [AZ628] + COc1cc2c(Oc3ccc(NC(=O)C4(C(=O)Nc5ccc(F)cc5)CC4)cc3F)ccnc2cc1OCCCN1CCOCC1 [Foretinib] (partner 0.25 µM)
Method in brief: as §1

[3] = compound: C[As](C)SC[C@H](NC(=O)CC[C@H](N)C(=O)O)C(=O)NCC(=O)O [Darinaparsin] + CC(C)C[C@H](NC(=O)[C@H](Cc1ccccc1)NC(=O)c1cnccn1)B(O)O [Bortezomib] (partner 0.002 µM)
Method in brief: as §1

[4] = compound: C[As](C)SC[C@H](NC(=O)CC[C@H](N)C(=O)O)C(=O)NCC(=O)O [Darinaparsin] + CCNC(=O)c1noc(-c2cc(C(C)C)c(O)cc2O)c1-c1ccc(CN2CCOCC2)cc1 [Luminespib] (partner 0.01 µM)
Method in brief: as §1

| Cell Line | relative viability ([1]; first compound 0.08 µM) | relative viability ([1]; first compound 0.253 µM) | relative viability ([1]; first compound 0.8 µM) | relative viability ([1]; first compound 2.53 µM) | relative viability ([1]; first compound 8 µM) | relative viability ([2]; first compound 0.08 µM) | relative viability ([2]; first compound 0.253 µM) | relative viability ([2]; first compound 0.8 µM) | relative viability ([2]; first compound 2.53 µM) | relative viability ([2]; first compound 8 µM) | relative viability ([3]; first compound 0.08 µM) | relative viability ([3]; first compound 0.8 µM) | relative viability ([3]; first compound 2.53 µM) | relative viability ([3]; first compound 8 µM) | relative viability ([4]; first compound 0.08 µM) | relative viability ([4]; first compound 0.8 µM) | relative viability ([4]; first compound 2.53 µM) | relative viability ([4]; first compound 8 µM) |
| --- | --- | --- | --- | --- | --- | --- | --- | --- | --- | --- | --- | --- | --- | --- | --- | --- | --- | --- |
| 201T | 1.18 | 1.08 | 0.868 | 1.04 | 0.632 | 1.29 | 1.01 | 1.18 | 1.16 | 1.31 | 1.1 | 1.09 | 1.06 | 1.15 | 1.1 | 1.03 | 0.958 | 1.16 |
| A549 | 0.911 | 0.883 | 0.697 | 0.918 | 0.917 | 0.931 | 0.824 | 0.816 | 0.956 | 0.34 | – | – | – | – | – | – | – | – |
| A-427 | 1.13 | 1.15 | – | 1.22 | 1.17 | 0.996 | 0.872 | 0.542 | 0.643 | 0.34 | 1.05 | 0.977 | 0.954 | 1.08 | 1.24 | 0.967 | 0.803 | 1.4 |
| ABC-1 | 0.912 | 1.06 | 1.06 | 1.08 | 1.32 | 0.96 | 1.17 | 1.19 | 0.944 | 0.943 | 0.256 | 0.443 | 0.331 | 0.234 | 0.358 | 0.608 | 1.04 | 0.676 |
| BEN | 0.47 | 0.616 | 0.814 | 0.691 | 0.701 | 0.694 | 0.511 | 0.544 | 0.561 | 0.571 | 0.889 | 0.846 | 0.654 | 1 | 0.409 | 0.366 | 0.511 | 0.522 |
| CAL-12T | 1.04 | 1.1 | 0.98 | 1.06 | 0.939 | 1.16 | 1.05 | 1.13 | 0.994 | 0.559 | 1.01 | 0.924 | 0.94 | 0.997 | 0.182 | 0.429 | 0.429 | 0.761 |
| COR-L23 | 0.976 | 1.03 | 0.716 | 0.802 | 0.735 | 1.02 | 1 | 0.949 | 1.08 | 0.625 | 1.64 | 0.995 | 0.77 | 1.17 | 1.12 | 0.64 | 0.661 | 0.64 |
| COR-L 105 | 1.08 | 1.25 | 0.924 | 0.991 | 0.992 | 1.47 | 0.95 | 1.19 | 1.11 | 0.669 | 0.944 | 0.78 | – | 0.636 | 0.867 | 0.775 | 0.712 | 0.682 |
